Here are results for 5 compounds from patent US9096532B2, “Pyrazole inhibitors of COX-2 and sEH” (The Regents of the University of California, priority 2010, dated 2015).

One data set relates to HepG2 cells. The data set is described as follows: HepG2 cell viability analysis (MTT). It counts as cell-based. The note with it: Homo sapiens, HepG2; MTT after 24 hours of incubation. On the procedure: Cells were plated at 10,000 cell per well in 96-well plates and allowed to attach overnight under the growth conditions described above. […] These compounds were dissolved in 100% DMSO and diluted with EMEM to the desired concentration of 0.1 μM, 1.0 μM, 10 μM, 25 μM, and 50 μM, with a final DMSO concentration of 0.1% for all cell-based in vitro studies. All studies included DMSO as a solvent control. Cell viability was determined using the MTT Cell Viability Assay Kit from ATCC according to manufacturer's instructions. The 96-well plates were measure at 570 nm using SpectroMax 190 plate reader (Molecular Devices, Sunnyvale, Calif.). […] Each concentration was performed in triplicate per 96-well plate and EC50 data are presented as the mean±standard deviation from at least 3 separate experiments performed on separate days.

The nature of data set [1]: Pharmacokinetics in mice by oral cassette dosing. It counts as in vivo. As to conditions: oral cassette dosing at 5 mg/kg, blood.
Experimental: All the animal experiments were performed according to protocols approved by the Animal Use and Care Committee of University of California, Davis. […] Each cassette was orally administered to 4 mice at a dose of 5 mg/kg in 120-150 μl of vehicle depending on animal weight. […] The instrument was equipped with a linear ion trap and a Turbo V ion source and was operated in negative ion MRM mode. […] This was maintained for 3 min, then the gradient was returned to 30% solvent B in 2 min. The flow rate was 0.4 mL/min. The injection volume was 10 μL and the samples were kept at 4° C. in the auto sampler.
The next data set addresses T1, human sEH (Homo sapiens, UniProt P34913).
T1 sequence (P34913 1-555): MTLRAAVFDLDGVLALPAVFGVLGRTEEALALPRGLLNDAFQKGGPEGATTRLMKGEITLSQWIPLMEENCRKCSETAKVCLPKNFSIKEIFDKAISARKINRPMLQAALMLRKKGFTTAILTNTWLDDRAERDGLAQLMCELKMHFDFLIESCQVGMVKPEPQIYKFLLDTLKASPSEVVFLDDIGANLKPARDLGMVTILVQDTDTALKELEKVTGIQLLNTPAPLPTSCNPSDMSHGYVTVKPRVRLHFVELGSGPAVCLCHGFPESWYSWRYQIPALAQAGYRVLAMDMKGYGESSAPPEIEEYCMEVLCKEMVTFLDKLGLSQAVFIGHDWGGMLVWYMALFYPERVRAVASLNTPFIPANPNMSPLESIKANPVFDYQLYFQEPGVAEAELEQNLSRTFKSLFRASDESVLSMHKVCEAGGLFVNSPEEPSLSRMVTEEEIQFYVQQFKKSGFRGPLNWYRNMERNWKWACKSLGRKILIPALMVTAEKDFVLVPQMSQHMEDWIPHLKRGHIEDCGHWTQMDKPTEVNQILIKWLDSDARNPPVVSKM
The data set can be described thus: sEH IC50 assay, fluorescent-based with CMNPC substrate. The data set is classed as biochemical. On the procedure:
sEH inhibition IC50 values for the compounds presented herein can be assayed by a recombinant affinity assay using purified sEHs, from human, mouse or rat, in a fluorescent-based assay.
For the recombinant affinity assay, purified sEHs (human, mouse and rat) were used in a fluorescent-based assay to determine IC50 values. […] These IC50 values were calculated from at least three separate runs, each in triplicate, to obtain the statistics herein, e.g., standard deviation.

Another data set concerns the target T2, 5-LOX (Homo sapiens, UniProt P09917).
T2 sequence (P09917 1-674): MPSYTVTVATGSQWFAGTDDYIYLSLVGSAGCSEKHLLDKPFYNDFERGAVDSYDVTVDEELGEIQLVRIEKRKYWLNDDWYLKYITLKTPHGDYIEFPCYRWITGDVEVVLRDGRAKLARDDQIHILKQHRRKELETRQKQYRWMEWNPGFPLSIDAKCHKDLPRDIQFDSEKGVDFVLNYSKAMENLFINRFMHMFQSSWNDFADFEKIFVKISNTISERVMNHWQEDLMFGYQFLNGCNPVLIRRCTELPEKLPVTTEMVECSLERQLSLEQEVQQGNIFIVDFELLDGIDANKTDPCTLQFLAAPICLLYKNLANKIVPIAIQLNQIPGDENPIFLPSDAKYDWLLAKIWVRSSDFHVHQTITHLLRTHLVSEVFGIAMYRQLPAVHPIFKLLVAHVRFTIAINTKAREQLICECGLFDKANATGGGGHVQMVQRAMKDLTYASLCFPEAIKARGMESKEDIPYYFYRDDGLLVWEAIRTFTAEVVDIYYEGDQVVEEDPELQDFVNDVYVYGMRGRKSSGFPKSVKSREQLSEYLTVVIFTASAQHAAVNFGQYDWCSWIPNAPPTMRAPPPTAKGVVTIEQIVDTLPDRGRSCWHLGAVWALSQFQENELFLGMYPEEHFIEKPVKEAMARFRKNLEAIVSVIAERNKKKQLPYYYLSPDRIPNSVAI
The data set is described as follows: Potency against 5-LOX. The data set is classed as biochemical. The note with it: compared with celecoxib.

The next data set deals with T3, ovine COX-1 (Ovis aries, UniProt P05979).
T3 construct: purchased Cayman Chemical 700100
T3 sequence (P05979 25-600): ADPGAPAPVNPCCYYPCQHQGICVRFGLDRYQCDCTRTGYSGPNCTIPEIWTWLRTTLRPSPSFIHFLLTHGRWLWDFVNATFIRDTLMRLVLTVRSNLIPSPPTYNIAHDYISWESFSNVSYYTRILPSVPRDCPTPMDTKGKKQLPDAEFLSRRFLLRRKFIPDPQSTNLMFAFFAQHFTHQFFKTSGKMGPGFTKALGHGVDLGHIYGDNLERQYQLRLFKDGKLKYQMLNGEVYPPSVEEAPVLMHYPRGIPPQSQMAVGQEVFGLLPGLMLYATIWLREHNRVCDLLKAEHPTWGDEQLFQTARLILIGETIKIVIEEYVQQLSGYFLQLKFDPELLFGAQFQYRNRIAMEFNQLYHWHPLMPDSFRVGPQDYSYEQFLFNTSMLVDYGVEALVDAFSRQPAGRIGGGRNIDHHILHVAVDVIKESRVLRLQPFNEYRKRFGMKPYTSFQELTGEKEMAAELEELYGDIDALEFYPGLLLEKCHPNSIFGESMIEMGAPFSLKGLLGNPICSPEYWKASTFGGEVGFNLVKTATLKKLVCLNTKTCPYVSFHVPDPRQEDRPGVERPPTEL
The data set is described as follows: Cyclooxygenase inhibition assay (COX Fluorescent Inhibitor Screening Assay Kit), COX-1. It counts as biochemical. As to conditions: for inhibition at 100 µM: read-out: COX-1 (% inhibition). On the procedure:
(§1) Stock solutions of test compounds are dissolved in a minimum volume of DMSO. 10 μl of various concentrations of the test compound solutions, e.g., [I]final between 0.01 and 100 μM, are added to a series of supplied reaction buffer solutions (150 μl, 100 mM Tris-HCl, pH 8.0) with either COX-1 or COX-2 (10 μl) enzyme in the presence of Heme (10 μl) and a fluorometric substrate (10 μl). The reactions are initiated by quickly adding 10 μl of arachidonic acid solution and then incubating the system for two minutes at room temperature. […] The intensity of this fluorescence is proportional to the amount of resorufin, which is proportional to the amount of PGG2 present in the well during the incubation. Percent inhibition is calculated by comparison from the 100% initial activity sample value (no inhibitor).
as §1, with “compounds were” for “compounds are”, “μM, were” for “μM, are”, “reactions were” for “reactions are”, “then incubated” for “then incubating the system”, “inhibition was” for “inhibition is”

For another data set, the target named is T4, human recombinant COX-2 (Homo sapiens, UniProt P35354).
T4 construct: purchased Cayman Chemical 700100
T4 sequence (P35354 18-604): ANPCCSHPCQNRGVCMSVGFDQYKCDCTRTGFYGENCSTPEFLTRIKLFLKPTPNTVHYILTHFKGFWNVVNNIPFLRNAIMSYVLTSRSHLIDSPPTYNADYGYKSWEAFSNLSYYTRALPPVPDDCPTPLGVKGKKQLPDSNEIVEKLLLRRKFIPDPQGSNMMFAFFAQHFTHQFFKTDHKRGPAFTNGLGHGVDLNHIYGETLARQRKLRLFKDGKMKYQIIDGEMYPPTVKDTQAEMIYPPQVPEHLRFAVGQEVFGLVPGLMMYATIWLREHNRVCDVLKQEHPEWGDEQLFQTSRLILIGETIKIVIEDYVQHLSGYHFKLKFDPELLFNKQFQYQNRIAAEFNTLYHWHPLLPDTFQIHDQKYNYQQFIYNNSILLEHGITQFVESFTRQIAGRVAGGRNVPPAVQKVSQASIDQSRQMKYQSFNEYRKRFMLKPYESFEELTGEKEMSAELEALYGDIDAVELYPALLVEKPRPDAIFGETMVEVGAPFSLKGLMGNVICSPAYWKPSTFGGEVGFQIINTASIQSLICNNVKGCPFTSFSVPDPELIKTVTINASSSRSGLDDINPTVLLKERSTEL
The data set is described as follows: Cyclooxygenase inhibition assay (COX Fluorescent Inhibitor Screening Assay Kit), COX-2. The data set is classed as biochemical. On the procedure:
as §1
as §1, with “compounds were” for “compounds are”, “μM, were” for “μM, are”, “reactions were” for “reactions are”, “then incubated” for “then incubating the system”, “inhibition was” for “inhibition is”

Data set [2] is described as follows: Pharmacokinetics in rats by oral administration.
The test system of the next data set is LPS induced allodynia. The data set can be described thus: Von Frey mechanical nociceptive assay, LPS induced model of inflammatory pain. It counts as in vivo. As to conditions: male SD rats, 10 mg/kg s.c. 60 minutes before intraplantar LPS, tested until 6 hours post LPS. On the procedure:
In vivo anti-allodynic effects of the COX-2/sEH dual inhibitors provided herein was assayed. An LPS induced model of inflammatory pain was used to compare the pain reducing activity of the COX-2/sEH dual inhibitors to combination and individual therapies.
Rats weighing approximately 250-300 grams are brought to the testing apparatus and allowed to acclimate for 30 minutes. After 30 minutes the rats are tested with a von Frey aesthesiometer for their non-treated baseline withdrawal latency to mechanical stimulation. The von Frey apparatus is a raised metal mesh platform that has clear acrylic chambers to enclose rats but allow them to move freely. A rigid tip von Frey probe is used to probe the plantar surface of the rat hind paw though the mesh floor to elicit a withdrawal response. The measures recorded are grams of force applied to the hind paw required to elicit a withdrawal. The pretreatment baseline score is considered the pain-free baseline (BL) and is assigned 100% for further response calculations. […] The measures are then calculated as a percent of the pretreatment baseline score.

[3] abbreviates: human recombinant COX-2, triplicate average.
Setting [4] is: rats, oral administration at 1 mg/kg (n = 4), blood.

Entries after “also recorded” stand apart in the source; their conditions may differ.

For orientation: EC50 means the concentration needed to bring the measured effect to its halfway point. A word on the AUC: it is the area under the concentration-time curve, a measure of exposure. A higher AUC goes with high exposure. Usually Cmax stands for the highest concentration seen after dosing. For orientation: Tmax means the time at which the peak concentration occurs. As usually defined, the IC50 is the midpoint of a concentration-inhibition curve. A word on the inhibition: it is the percentage by which the read-out fell short of the control. In general, half-life refers to the time needed for the level to fall by half in the phase considered. A lower half-life goes with rapid decline.

Compound `Cc1ccc(-c2cc(C(F)(F)F)nn2-c2ccc(S(N)(=O)=O)cc2)cc1` [Celecoxib, celecoxib, reference compound] returned an EC50 in the data set with HepG2 cells of 20 ± 4 µM.
Consider `NS(=O)(=O)c1ccc(-n2nc(CCCNC(=O)Nc3cccc(C(F)(F)F)c3)cc2-c2ccccc2)cc1` [Compound 21b, 4-(5-Phenyl-3-{3-[3-(3-trifluoromethyl-phenyl)-ureido]-propyl}-pyrazol-1-yl)-benzenesulfonamide], for which, in data set [1], the AUC came to 35 nM·h, the concentration peaked (Cmax) at 19 nM, the Tmax turned out to be 30 min and the t1/2 amounted to 1.0 h. Also, the “Improvement of sEH inhibition” value at human sEH (compared to compound 11g) was 20 fold. Besides, the “Potency against 5-LOX, in words” value on 5-LOX is “comparable with celecoxib”. Also, at ovine COX-1, the IC50 is greater than 100 µM and the inhibition at 100 µM came out at 27.2%. Also, the IC50 on human recombinant COX-2 (setting [3]) was determined as 710 nM. For the same compound, the half-inhibitory concentration (IC50) on human recombinant COX-2 (text of b131, unit inferred) came out at 710 nM.
`Cc1ccc(-c2cc(CCCNC(=O)Nc3cccc(C(F)(F)F)c3)nn2-c2ccc(S(N)(=O)=O)cc2)cc1` [Compound 21c, 4-(5-p-Tolyl-3-{3-[3-(3-trifluoromethyl-phenyl)-ureido]-propyl}-pyrazol-1-yl)-benzenesulfonamide]: the “Diminished sEH inhibition” value at human sEH (compared to compound 21b) came out at 3 fold. Further, at ovine COX-1, the inhibition at 100 µM came out at 12.1%. In addition, the “Diminished COX-2 inhibition” value on human recombinant COX-2 (compared to compound 21b) was 3 fold.
On to `NS(=O)(=O)c1ccc(-n2nc(CCCNC(=O)Nc3ccc(OC(F)(F)F)cc3)cc2-c2ccccc2)cc1` [Compound 21j, 4-(5-Phenyl-3-{3-[3-(4-trifluoromethoxy-phenyl)-ureido]-propyl}-pyrazol-1-yl)-benzenesulfonamide], for which, in data set [1], the AUC came to 1335 nM·h, the Cmax was 290 nM, the Tmax was 48 min and the t1/2 was found to be 2.4 h. In data set [2] (male, Sprague-Dawley, rat, whole blood, po, 1 mg/kg), the half-life was 696 ± 336 min. Moreover, in data set [2] (setting [4]), the AUC is 1230 ± 521 nM·h, the Cmax turned out to be 180 ± 71 nM and the Tmax was 1.0 ± 0.7 h. In the data set with HepG2 cells, a half-maximal response (EC50) required 10 ± 2 µM. In addition, the “Potency against 5-LOX, in words” value on 5-LOX is “comparable with celecoxib”. In addition, at ovine COX-1, the IC50 was greater than 100 µM and the inhibition at 100 µM was 13.8%. At human recombinant COX-2 (setting [3]), the concentration for half-maximal inhibition (IC50) came out at 920 nM.
For the compound `O=C(NC1CCC(Oc2ccc(C(=O)O)cc2)CC1)NC12CC3CC(CC(C3)C1)C2` (centres unmarked) [t-AUCB, reference compound], at ovine COX-1 (ovine COX-1, % inhibition at 100 μM concentration), the “COX-1 (% inhibition)” value is given as 25.2%. Moreover, the “Anti-allodynic effect, von Frey paw withdrawal, in words” value in the data set on LPS induced allodynia is listed as “slight antihyperalgesic effect; also recorded: limited effect”.
